Results published in PubChem BioAssay AID248 (DTP/NCI, 2004).
Where “and” joins values, the source holds several entries; their conditions need not be identical. Equal entries are not always repeated. Toxic doses and inconclusive results are not listed.

Test system: L1210 leukemia ip in BDF1 mice, survival T/C
Test: NCI In Vivo Anticancer Drug Screen. Data for tumor model L1210 Leukemia (intraperitoneal) in B6D2F1 (BDF1) mice
Settings: endpoint: mean survival time, higher = longer survival
How it was run: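 Each compound was tested against a transplantable tumor grown in mice. The endpoint was survival, with treated animals benchmarked against vehicle controls as a simple ratio.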

[1] = dose: 100.0 mg/kg/injection, schedule: Q01DX009 (ip), vehicle: saline with Tween-80
[2] = dose: 100.0 mg/kg/injection, schedule: Q01DX009 (ip), vehicle: saline
[3] = dose: 100.0 mg/kg/injection, schedule: Q04DX003 (ip), vehicle: saline with Tween-80
[4] = dose: 200.0 mg/kg/injection, schedule: Q01DX009 (ip), vehicle: saline
[5] = dose: 200.0 mg/kg/injection, schedule: Q04DX003 (ip), vehicle: saline with Tween-80
[6] = dose: 400.0 mg/kg/injection, schedule: Q04DX003 (ip), vehicle: saline with Tween-80
[7] = dose: 100.0 mg/kg/injection, schedule: Q04DX002 (ip), vehicle: saline with Tween-80
[8] = dose: 200.0 mg/kg/injection, schedule: Q04DX002 (ip), vehicle: saline with Tween-80
[9] = dose: 400.0 mg/kg/injection, schedule: Q04DX002 (ip), vehicle: saline with Tween-80
[10] = dose: 100.0 mg/kg/injection, schedule: Q01DX001 (ip), vehicle: saline
[11] = dose: 200.0 mg/kg/injection, schedule: Q01DX001 (ip), vehicle: saline
[12] = dose: 400.0 mg/kg/injection, schedule: Q01DX001 (ip), vehicle: saline

## C/C=C/C(=O)Nc1cc(C(F)(F)F)ccc1Cl
dose: 25.0 mg/kg/injection, schedule: Q01DX009 (ip), vehicle: saline with Tween-80
  T/C: 93 % of control and 97 % of control
dose: 50.0 mg/kg/injection, schedule: Q01DX009 (ip), vehicle: saline with Tween-80
  T/C: 97 % of control and 89 % of control
dose: 50.0 mg/kg/injection, schedule: Q04DX003 (ip), vehicle: saline with Tween-80
  T/C: 98 % of control
dose: 100.0 mg/kg/injection, schedule: Q01DX001 (ip), vehicle: saline with Tween-80
  T/C: 98 % of control
[1]
  T/C: 96 % of control and 90 % of control
[2]
  T/C: 94 % of control and 102 % of control
dose: 100.0 mg/kg/injection, schedule: Q04DX002 (ip), vehicle: saline
  T/C: 102 % of control and 109 % of control
[3]
  T/C: 98 % of control and 89 % of control
dose: 200.0 mg/kg/injection, schedule: Q01DX001 (ip), vehicle: saline with Tween-80
  T/C: 88 % of control
[4]
  T/C: 88 % of control
dose: 200.0 mg/kg/injection, schedule: Q04DX002 (ip), vehicle: saline
  T/C: 94 % of control and 103 % of control
[5]
  T/C: 109 % of control
dose: 400.0 mg/kg/injection, schedule: Q04DX002 (ip), vehicle: saline
  T/C: 95 % of control
[6]
  T/C: 95 % of control

## Cc1ccc(C)c(/C(=N\N=C(N)N)C2CC2)c1
dose: 15.0 mg/kg/injection, schedule: Q01DX Z (ip), vehicle: methylcellulose (MC)
  T/C: 103 % of control
dose: 30.0 mg/kg/injection, schedule: Q01DX Z (ip), vehicle: methylcellulose (MC)
  T/C: 99 % of control
dose: 30.0 mg/kg/injection, schedule: Q01DX Z (oral), vehicle: methylcellulose (MC)
  T/C: 103 % of control
dose: 60.0 mg/kg/injection, schedule: Q01DX Z (ip), vehicle: methylcellulose (MC)
  T/C: 100 % of control
dose: 60.0 mg/kg/injection, schedule: Q01DX Z (oral), vehicle: methylcellulose (MC)
  T/C: 94 % of control
dose: 120.0 mg/kg/injection, schedule: Q01DX Z (oral), vehicle: methylcellulose (MC)
  T/C: 100 % of control

## O=C(c1ccccc1)C(O)(CCP(=O)(c1ccccc1)c1ccccc1)c1ccccc1 (configuration not stated)
dose: 75.0 mg/kg/injection, schedule: Q01DX001 (ip), vehicle: carboxymethylcellulose (CMC)
  T/C: 88 % of control
dose: 150.0 mg/kg/injection, schedule: Q01DX001 (ip), vehicle: carboxymethylcellulose (CMC)
  T/C: 96 % of control

## COc1ccccc1C(C#N)NCCCNC(C#N)c1ccccc1OC (configuration not stated)
dose: 10.0 mg/kg/injection, schedule: Q01DX001 (ip), vehicle: saline
  T/C: 89 % of control
dose: 20.0 mg/kg/injection, schedule: Q01DX001 (ip), vehicle: saline
  T/C: 110 % of control

## S=c1c2ccccc2oc2ccccc12
dose: 50.0 mg/kg/injection, schedule: Q04DX002 (ip), vehicle: saline with Tween-80
  T/C: 93 % of control
[7]
  T/C: 93 % of control
[8]
  T/C: 87 % of control
[9]
  T/C: 97 % of control

## CN(C)c1ccccc1C(=O)N/N=C\c1ccc(Cl)cc1
dose: 100.0 mg/kg/injection, schedule: Q04DX002 (ip), vehicle: gum acacia
  T/C: 96 % of control
dose: 200.0 mg/kg/injection, schedule: Q04DX002 (ip), vehicle: gum acacia
  T/C: 107 % of control
dose: 400.0 mg/kg/injection, schedule: Q04DX002 (ip), vehicle: gum acacia
  T/C: 100 % of control

## CN(C)S(=O)(=O)c1ccc2c(c1)N(CCCN1CCN(S(C)(=O)=O)CC1)c1ccccc1S2
dose: 25.0 mg/kg/injection, schedule: Q01DX009 (ip), vehicle: saline
  T/C: 95 % of control
dose: 50.0 mg/kg/injection, schedule: Q01DX009 (ip), vehicle: saline
  T/C: 101 % of control
[2]
  T/C: 91 % of control
[4]
  T/C: 98 % of control
dose: 400.0 mg/kg/injection, schedule: Q01DX009 (ip), vehicle: saline
  T/C: 106 % of control

## CNC(=S)N/N=C1/C(=N\NC(=S)NC)C(=O)OC1C(O)CO (configuration not stated)
dose: 100.0 mg/kg/injection, schedule: Q01DX001 (ip), vehicle: other
  T/C: 93 % of control
[1]
  T/C: 98 % of control
[3]
  T/C: 100 % of control
dose: 200.0 mg/kg/injection, schedule: Q01DX001 (ip), vehicle: other
  T/C: 95 % of control
dose: 200.0 mg/kg/injection, schedule: Q01DX009 (ip), vehicle: saline with Tween-80
  T/C: 112 % of control
[5]
  T/C: 89 % of control
dose: 400.0 mg/kg/injection, schedule: Q01DX001 (ip), vehicle: other
  T/C: 90 % of control
[6]
  T/C: 91 % of control

## Clc1ccc(SCNCc2ccccc2)cc1
[10]
  T/C: 100 % of control
[11]
  T/C: 94 % of control
[12]
  T/C: 96 % of control

## O=C(NC/C(Br)=C/Br)Nc1cccc2ccccc12
[7]
  T/C: 97 % of control
[8]
  T/C: 90 % of control
[9]
  T/C: 97 % of control

## Cc1c([N+](=O)[O-])sc2ccccc12
[10]
  T/C: 97 % of control
[11]
  T/C: 97 % of control
[12]
  T/C: 90 % of control

## NNC(=O)C(Oc1ccccc1Cl)c1ccccc1 (configuration not stated)
dose: 100.0 mg/kg/injection, schedule: Q01DX001 (ip), vehicle: carboxymethylcellulose (CMC)
  T/C: 105 % of control
dose: 200.0 mg/kg/injection, schedule: Q01DX001 (ip), vehicle: carboxymethylcellulose (CMC)
  T/C: 97 % of control
dose: 400.0 mg/kg/injection, schedule: Q01DX001 (ip), vehicle: carboxymethylcellulose (CMC)
  T/C: 105 % of control

## [N-]=[N+]=C1C(=O)NC(=O)N2C3CC(O)C(COC12)O3 (configuration not stated)
dose: 32.0 mg/kg/injection, schedule: Q01DX Z (oral), vehicle: saline
  T/C: 110 % of control
dose: 63.0 mg/kg/injection, schedule: Q01DX Z (oral), vehicle: saline
  T/C: 105 % of control
[2]
  T/C: 111 % of control
dose: 100.0 mg/kg/injection, schedule: Q04DX003 (ip), vehicle: saline
  T/C: 102 % of control
dose: 125.0 mg/kg/injection, schedule: Q01DX Z (oral), vehicle: saline
  T/C: 101 % of control
dose: 133.0 mg/kg/injection, schedule: Q01DX006 (iv), vehicle: saline
  T/C: 106 % of control
dose: 133.0 mg/kg/injection, schedule: Q01DX Z (ip), vehicle: carboxymethylcellulose (CMC)
  T/C: 104 % of control
dose: 133.0 mg/kg/injection, schedule: Q01DX Z (ip), vehicle: saline
  T/C: 113 % of control and 119 % of control
dose: 200.0 mg/kg/injection, schedule: Q01DX006 (iv), vehicle: saline
  T/C: 110 % of control
[4]
  T/C: 114 % of control
dose: 200.0 mg/kg/injection, schedule: Q01DX Z (ip), vehicle: carboxymethylcellulose (CMC)
  T/C: 105 % of control
dose: 200.0 mg/kg/injection, schedule: Q01DX Z (ip), vehicle: saline
  T/C: 117 % of control
dose: 200.0 mg/kg/injection, schedule: Q04DX003 (ip), vehicle: saline
  T/C: 107 % of control
dose: 250.0 mg/kg/injection, schedule: Q01DX Z (oral), vehicle: carboxymethylcellulose (CMC)
  T/C: 108 % of control
dose: 250.0 mg/kg/injection, schedule: Q01DX Z (oral), vehicle: saline
  T/C: 105 % of control and 107 % of control
dose: 300.0 mg/kg/injection, schedule: Q01DX006 (iv), vehicle: saline
  T/C: 118 % of control
dose: 300.0 mg/kg/injection, schedule: Q01DX Z (ip), vehicle: saline
  T/C: 150 % of control
dose: 400.0 mg/kg/injection, schedule: Q04DX003 (ip), vehicle: saline
  T/C: 107 % of control
dose: 450.0 mg/kg/injection, schedule: Q01DX006 (iv), vehicle: saline
  T/C: 116 % of control
dose: 500.0 mg/kg/injection, schedule: Q01DX Z (oral), vehicle: carboxymethylcellulose (CMC)
  T/C: 98 % of control
dose: 500.0 mg/kg/injection, schedule: Q01DX Z (oral), vehicle: saline
  T/C: 107 % of control and 117 % of control
dose: 675.0 mg/kg/injection, schedule: Q01DX006 (iv), vehicle: saline
  T/C: 112 % of control
dose: 675.0 mg/kg/injection, schedule: Q01DX Z (ip), vehicle: saline
  T/C: 111 % of control
dose: 800.0 mg/kg/injection, schedule: Q01DX006 (iv), vehicle: saline
  T/C: 102 % of control
dose: 1000.0 mg/kg/injection, schedule: Q01DX006 (iv), vehicle: saline
  T/C: 102 % of control
dose: 1000.0 mg/kg/injection, schedule: Q01DX Z (oral), vehicle: carboxymethylcellulose (CMC)
  T/C: 100 % of control
dose: 2000.0 mg/kg/injection, schedule: Q01DX Z (oral), vehicle: carboxymethylcellulose (CMC)
  T/C: 107 % of control

## NC1=NC(CCc2ccccc2)N(c2ccc(Cl)cc2)C(N)=N1 (configuration not stated)
dose: 14.0 mg/kg/injection, schedule: Q01DX009 (ip), vehicle: steriod suspending solution
  T/C: 98 % of control
dose: 24.0 mg/kg/injection, schedule: Q01DX009 (ip), vehicle: steriod suspending solution
  T/C: 97 % of control
dose: 39.0 mg/kg/injection, schedule: Q01DX009 (ip), vehicle: steriod suspending solution
  T/C: 100 % of control
dose: 65.0 mg/kg/injection, schedule: Q01DX009 (ip), vehicle: steriod suspending solution
  T/C: 100 % of control
